Converted amounts (≈) assume the structure as drawn. Values belong to the compound of their own block, whether it stands above or below them.
How the values were obtained:
Streptococcus mutans = assay: Prevention of Streptococcus mutans adherence at 0.1 mg/ml relative to control; type: functional
Streptococcus suis = assay: Prevention of Streptococcus suis ATCC 700794 adherence to sucrose-dependent membrane surface at 78.1 ug/ml relative to control; type: functional; settings: dose 78.1 µg/ml
[1] = Inhibition of C-terminal 6His-tagged Escherichia coli UTI89 FmlH (1 to 160 residues) expressed in Escherichia coli C600 expression system using tetramethylbenzidine as substrate incubated for 1 hr by […]
Escherichia coli [2] = assay: Antibiofilm activity against Escherichia coli UTI89 at 2.5 ug/ml incubated for 72 hrs by crystal violet staining based assay relative to control; type: functional; settings: dose 2.5 µg/ml
[3] = Binding affinity to Lactobacillus reuteri Glucosyltransferase assessed as dissociation constant by SPR analysis; set-up: species or system Limosilactobacillus reuteri
[4] = Binding affinity to C-terminal 6His-tagged Escherichia coli UTI89 FmlH (1 to 160 residues) expressed in Escherichia coli C600 expression system assessed as dissociation constant by biolayer interferometry assay
Staphylococcus aureus = assay: Antibiofilm activity against Staphylococcus aureus USA300 assessed as inhibition of biofilm formation at 256 ug/ml measured after 24 hrs by crystal violet staining based assay relative to control; type: functional; set-up: scale not given: the % may be the effect or the level left; settings: dose 256 µg/ml
[5] = target: T1, PA-I galactophilic lectin (Pseudomonas aeruginosa (strain ATCC 15692 / PAO1 / 1C / PRS 101 / LMG12228), UniProt Q05097); assay: Inhibition of FITC-labelled Pseudomonas aeruginosa LecA incubated for 1 hr by fluorescence based analysis
T1 sequence (Q05097 whole entry): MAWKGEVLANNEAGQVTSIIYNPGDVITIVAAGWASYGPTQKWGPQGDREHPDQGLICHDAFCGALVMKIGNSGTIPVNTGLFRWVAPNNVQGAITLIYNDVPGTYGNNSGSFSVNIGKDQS

Escherichia coli [6] = assay: Antibiofilm activity against Escherichia coli UTI89 at 5 ug/ml incubated for 72 hrs by crystal violet staining based assay relative to control; type: functional; settings: dose 5 µg/ml
Pseudomonas aeruginosa [7] = assay: Antibacterial activity against Pseudomonas aeruginosa PAO1 NCTC 10332 assessed as inhibition of biofilm dispersion incubated for 24 hrs by crystal violet staining based analysis; type: functional, organism-based; settings: PAO1 NCTC 10332, 24 h
Pseudomonas aeruginosa [8] = assay: Antibacterial activity against Pseudomonas aeruginosa PAO1 NCTC 10332 assessed as inhibition of biofilm formation incubated for 24 hrs by crystal violet staining based analysis; type: functional, organism-based; settings: PAO1 NCTC 10332, 24 h
Pseudomonas aeruginosa [9] = assay: Antibacterial activity against Pseudomonas aeruginosa PAO1 NCTC 10332 assessed as inhibition of biofilm formation at 100 ug/ml incubated for 24 hrs by crystal violet staining based analysis relative to control; type: functional; set-up: scale not given: the % may be the effect or the level left; settings: dose 100 µg/ml
Serratia marcescens = assay: Antibacterial activity against Serratia marcescens ATCC 27117 assessed as inhibition of biofilm formation at 50 ug/ml incubated for 24 hrs by crystal violet staining based analysis relative to control; type: functional; set-up: scale not given: the % may be the effect or the level left; settings: dose 50 µg/ml

SMILES: COc1cc(-c2[o+]c3cc(O[C@@H]4O[C@H](CO)[C@@H](O)[C@H](O)[C@H]4O)cc(O)c3cc2O[C@@H]2O[C@H](CO)[C@@H](O)[C@H](O)[C@H]2O)cc(OC)c1O
Activity (Streptococcus mutans): 60%

SMILES: C[C@@H]1O[C@@H](OC[C@H]2O[C@@H](Oc3c(-c4ccc(O)c(O)c4)oc4cc(O)cc(O)c4c3=O)[C@H](O)[C@@H](O)[C@@H]2O)[C@H](O)[C@H](O)[C@H]1O [RUTIN]
Activity (Streptococcus suis): 20%

SMILES: O=C(O)C[C@H]1[C@@H](Oc2ccccc2-c2cccc(C(=O)O)c2)O[C@H](CO)[C@H](O)[C@@H]1O
Kd [1]: 0.64 µM

SMILES: CC(=O)O[C@@H]1[C@@H](O)[C@@H](O)[C@H](O[C@@H]2[C@@H](O)[C@H](OCCc3ccc(O)c(O)c3)O[C@H](CO)[C@H]2OC(=O)/C=C/c2ccc(O)c(O)c2)O[C@H]1C
Activity (Escherichia coli [2]): 77%

Kd [3]: 1600 µM
SMILES: C[C@H]1[C@H](Oc2ccc(/C=N/NC(=O)C3CCN(C(=O)OC(C)(C)C)CC3)cc2)O[C@H](CO)[C@@H](O)[C@@H]1O

SMILES: O=C(O)C[C@H]1[C@@H](Oc2ccccc2[N+](=O)[O-])O[C@H](CO)[C@H](O)[C@@H]1O
Kd [4]: 10.6 µM

SMILES: O=c1cc(-c2ccc(O)cc2)oc2cc(O)c([C@@H]3O[C@H](CO)[C@@H](O)[C@H](O)[C@H]3O)c(O)c12 [ISOVITEXIN]
Activity (Staphylococcus aureus): 61%

Kd [3]: 400 µM
SMILES: C[C@H]1[C@H](Oc2ccc(/C=N/NC(=O)COc3ccccc3Cl)cc2)O[C@H](CO)[C@@H](O)[C@@H]1O

IC50 [5]: 0.028 µM
SMILES: OC[C@H]1O[C@@H](OCc2cn([C@H]3[C@H](O)[C@@H](O)[C@H](c4cn([C@H]5[C@H](O)[C@@H](O)[C@H](n6cc([C@@H]7O[C@H](CO)[C@@H](n8cc(CO[C@@H]9O[C@H](CO)[C@H](O)[C@H](O)[C@H]9O)nn8)[C@H](O)[C@H]7O)nn6)O[C@@H]5CO)nn4)O[C@@H]3CO)nn2)[C@H](O)[C@@H](O)[C@H]1O

SMILES: C[C@@H]1O[C@@H](O[C@@H]2[C@@H](O)[C@H](OCCc3ccc(O)c(O)c3)O[C@H](CO)[C@H]2OC(=O)/C=C/c2ccc(O)c(O)c2)[C@H](O)[C@H](O)[C@H]1O [ACETOSIDE]
Activity (Escherichia coli [6]): 60%

IC50 (Pseudomonas aeruginosa [7]): 10 µg/mL (≈ 13.9 µM) | IC50 (Pseudomonas aeruginosa [8]): 12.5 µg/mL (≈ 17.4 µM)
SMILES: CCCCCCC[C@H](CC(=O)N1CCOCC1)OC(=O)C[C@@H](CCCCCCC)O[C@@H]1O[C@@H](C)[C@H](O)[C@@H](O)[C@H]1O[C@@H]1O[C@@H](C)[C@H](O)[C@@H](O)[C@H]1O
Activity (Pseudomonas aeruginosa [9]): 90% | Activity (Serratia marcescens): >80%

— ChEMBL document CHEMBL5137057, “Small Carbohydrate Derivatives as Potent Antibiofilm Agents” (J Med Chem, 2022)
